Experimental data as given in publication PMC2747480 (Journal of medicinal chemistry, 2009).
“Also recorded” adds a separate entry of the source.

Assays:
[1] = system: Bax/Bak double knockout MEF cells (DKO/MEFs); assay: Bax/Bak double knockout MEF cytotoxicity, FITC-Annexin V/PI assay; type: cell-based, mouse; conditions: 10 μM, result in words
[2] = chemical stability as solid powder at room temperature; type: physicochemical; conditions: in air, no ascorbic acid
[3] = in vitro microsomal stability; conditions: rat microsomes
[4] = in vitro plasma stability
[5] = result in words; cited from earlier work
Bcl-XL = Bcl-XL (Homo sapiens, UniProt Q07817); assay: Isothermal Titration Calorimetry; type: binding; conditions: relative to compound 2
Chain of Bcl-XL (Q07817 whole entry): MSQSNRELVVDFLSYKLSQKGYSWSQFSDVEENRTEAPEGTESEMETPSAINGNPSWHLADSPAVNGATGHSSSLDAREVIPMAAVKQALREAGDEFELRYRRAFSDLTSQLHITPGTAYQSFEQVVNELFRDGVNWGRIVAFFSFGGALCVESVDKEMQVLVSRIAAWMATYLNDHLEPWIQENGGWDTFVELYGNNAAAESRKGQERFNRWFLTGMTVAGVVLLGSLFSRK

GST-Mcl-1 = GST-Mcl-1 (Homo sapiens, UniProt Q07820); assay: competitive fluorescence polarization assay; type: binding; conditions: relative to compound 2
Chain of GST-Mcl-1 (Q07820 whole entry): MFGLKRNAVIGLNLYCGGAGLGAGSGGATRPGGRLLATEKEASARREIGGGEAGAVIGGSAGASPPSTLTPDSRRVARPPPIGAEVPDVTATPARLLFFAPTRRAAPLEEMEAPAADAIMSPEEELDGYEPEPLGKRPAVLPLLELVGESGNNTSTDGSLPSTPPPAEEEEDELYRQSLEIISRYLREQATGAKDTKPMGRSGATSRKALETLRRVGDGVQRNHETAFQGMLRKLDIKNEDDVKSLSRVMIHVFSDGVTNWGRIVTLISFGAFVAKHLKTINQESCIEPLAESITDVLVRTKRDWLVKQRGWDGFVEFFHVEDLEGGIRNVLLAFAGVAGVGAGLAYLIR

[6] = single dose of 100, 75, 50 and 25 mg/kg ip, 14 days, result in words
Bfl-1 = target: T1, Bfl-1 (Homo sapiens, UniProt Q16548); assay: competitive fluorescence polarization assay; type: binding; conditions: relative to compound 2
T1 sequence (Q16548 1-175): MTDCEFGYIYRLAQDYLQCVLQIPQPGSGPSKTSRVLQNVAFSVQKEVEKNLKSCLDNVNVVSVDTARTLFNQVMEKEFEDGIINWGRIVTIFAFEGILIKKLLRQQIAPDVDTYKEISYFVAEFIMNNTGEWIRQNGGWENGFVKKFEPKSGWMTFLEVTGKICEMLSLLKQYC

GST–Bcl-XL ΔTM protein = GST–Bcl-XL ΔTM protein (Homo sapiens, UniProt Q07817); assay: competitive fluorescence polarization assay; type: binding; conditions: relative to compound 2
Chain of GST–Bcl-XL ΔTM protein (Q07817 1-209 limits assumed, stated change not applied): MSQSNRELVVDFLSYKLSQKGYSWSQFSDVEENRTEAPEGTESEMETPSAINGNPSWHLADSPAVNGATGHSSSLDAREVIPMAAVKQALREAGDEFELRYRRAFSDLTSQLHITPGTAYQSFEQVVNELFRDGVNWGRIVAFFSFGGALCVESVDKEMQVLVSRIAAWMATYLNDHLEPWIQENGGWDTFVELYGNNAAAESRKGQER

GST-Bcl-2 = GST-Bcl-2 (Homo sapiens, UniProt P10415); assay: competitive fluorescence polarization assay; type: binding; conditions: relative to compound 2
Chain of GST-Bcl-2 (P10415 whole entry): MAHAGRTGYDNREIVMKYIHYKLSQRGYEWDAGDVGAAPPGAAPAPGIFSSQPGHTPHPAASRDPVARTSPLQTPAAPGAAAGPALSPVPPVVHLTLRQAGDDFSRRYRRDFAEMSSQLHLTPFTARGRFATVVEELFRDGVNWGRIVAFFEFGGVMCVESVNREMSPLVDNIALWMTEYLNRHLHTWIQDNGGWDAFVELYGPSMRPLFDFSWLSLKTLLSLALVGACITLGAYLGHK

Bcl-2 transgenic mice = assay: spleen weight reduction in Bcl-2 transgenic mice; type: in vivo, mouse; conditions: single ip injection, 72 μmol/kg, result in words
RS11846 cells = assay: RS11846 apoptosis, Annexin V-FITC and propidium iodide assay; conditions: result in words
BP3 cells = assay: BP3 cells, Annexin V-FITC and propidium iodide assay; conditions: result in words

SMILES: Cc1cc2c(C(C)C)c(O)c(O)c(C=O)c2c(O)c1-c1c(C)cc2c(C(C)C)c(O)c(O)c(C=O)c2c1O [Compound 1, 1,1′,6,6′,7,7′-Hexahydroxy-5,5′-diisopropyl-3,3′-dimethyl-2,2′-binaphthyl-8,8′-dicarboxaldehyde, reference compound]
- killing of DKO/MEFs (bax−/−bak−/− cells) [1]: equally effective in killing both wt MEFs and MEF/DKOs

SMILES: Cc1cc2c(C(C)C)c(O)c(O)cc2c(O)c1-c1c(C)cc2c(C(C)C)c(O)c(O)cc2c1O [Compound 2, 5,5′-Diisopropyl-1,1′,6,6′,7,7′-hexahydroxy-3,3′-dimethyl-2,2′-binaphthalene, reference compound]
- killing of DKO/MEFs (bax−/−bak−/− cells) [1]: reduced cytotoxicity against MEF/DKOs
- degraded after 60 days at room temperature [2]: ~80%
- degraded after 1 h incubation in rat microsomal preparations [3]: 36%
- degraded after 1 h incubation in rat plasma [4]: 47%

SMILES: Cc1cc2c(C(=O)Cc3ccccc3)c(O)c(O)cc2c(O)c1-c1c(C)cc2c(C(=O)Cc3ccccc3)c(O)c(O)cc2c1O [Compound 3]
- GI toxicity in mice [5]: mild GI toxicity

SMILES: Cc1cc2c(C(=O)NC(C)c3ccc(Cl)cc3)c(O)c(O)cc2c(O)c1-c1c(C)cc2c(C(=O)NC(C)c3ccc(Cl)cc3)c(O)c(O)cc2c1O (stereo not shown) [Compound 8k, N^5,N^5′-Bis(1-(4-chlorophenyl)ethyl)-1,1′,6,6′,7,7′-hexahydroxy-3,3′-dimethyl-2,2′-binaphthyl-5,5′-dicarboxamide]
- killing of DKO/MEFs (bax−/−bak−/− cells) [1]: ineffective

SMILES: Cc1cc2c(C(=O)NCC3CCCCC3)c(O)c(O)cc2c(O)c1-c1c(C)cc2c(C(=O)NCC3CCCCC3)c(O)c(O)cc2c1O [Compound 8m, N^5,N^5′-Bis(cyclohexylmethyl)-1,1′,6,6′,7,7′-hexahydroxy-3,3′-dimethyl-2,2′-binaphthyl-5,5′-dicarboxamide]
- killing of DKO/MEFs (bax−/−bak−/− cells) [1]: ineffective
- degraded after 1 h incubation in rat microsomal preparations [3]: 10%
- degraded after 1 h incubation in rat plasma [4]: 11%

SMILES: Cc1cc2c(C(=O)NCCc3cccc(Cl)c3)c(O)c(O)cc2c(O)c1-c1c(C)cc2c(C(=O)NCCc3cccc(Cl)c3)c(O)c(O)cc2c1O [Compound 8p, N^5,N^5′-Bis(3-chlorophenethyl)-1,1′,6,6′,7,7′-hexahydroxy-3,3′-dimethyl-2,2′-binaphthyl-5,5′-dicarboxamide]
- killing of DKO/MEFs (bax−/−bak−/− cells) [1]: ineffective

SMILES: CCc1ccc(CCNC(=O)c2c(O)c(O)cc3c(O)c(-c4c(C)cc5c(C(=O)NCCc6ccc(CC)cc6)c(O)c(O)cc5c4O)c(C)cc23)cc1 [Compound 8q, N^5,N^5′-Bis(4-ethylphenethyl)-1,1′,6,6′,7,7′-hexahydroxy-3,3′-dimethyl-2,2′-binaphthyl-5,5′-dicarboxamide]
- killing of DKO/MEFs (bax−/−bak−/− cells) [1]: ineffective
- degraded after 60 days at room temperature [2]: 10%

SMILES: Cc1cc2c(C(=O)NCC(C)c3ccccc3)c(O)c(O)cc2c(O)c1-c1c(C)cc2c(C(=O)NCC(C)c3ccccc3)c(O)c(O)cc2c1O (stereo not shown) [Compound 8r, 1,1′,6,6′,7,7′-Hexahydroxy-3,3′-dimethyl-N^5,N^5′-bis(2-phenylpropyl)-2,2′-binaphthyl-5,5′-dicarboxamide]
- times more potent than compound 2, ITC Bcl-XL (Bcl-XL): 15 times
- killing of DKO/MEFs (bax−/−bak−/− cells) [1]: ineffective; also recorded: little cytotoxicity
- degraded after 60 days at room temperature [2]: 10%
- times higher potency than compound 2, FP Mcl-1 (GST-Mcl-1): approximately 10 times
- mortality [6]: All mice were alive after 14 days
- degraded after 1 h incubation in rat microsomal preparations [3]: 24%
- times higher potency than compound 2, FP Bfl-1 (Bfl-1): approximately 10 times
- degraded after 1 h incubation in rat plasma [4]: 4%
- times more effective than 2, FP displacement Bcl-XL (GST–Bcl-XL ΔTM protein): 5 times
- times higher potency than compound 2, FP Bcl-2 (GST-Bcl-2): approximately 10 times

SMILES: Cc1cc2c(CC3CCCC3)c(O)c(O)cc2c(O)c1-c1c(C)cc2c(CC3CCCC3)c(O)c(O)cc2c1O [Compound 12c, 5,5′-Bis(cyclopentylmethyl)-3,3′-dimethyl-2,2′-binaphthyl-1,1′,6,6′,7,7′-hexaol]
- in vivo activity in Bcl-2 transgenic mice (Bcl-2 transgenic mice): lower in vivo activity

SMILES: Cc1cc2c(CCc3ccccc3)c(O)c(O)cc2c(O)c1-c1c(C)cc2c(CCc3ccccc3)c(O)c(O)cc2c1O [Compound 12e, 3,3′-Dimethyl-5,5′-diphenethyl-2,2′-binaphthyl-1,1′,6,6′,7,7′-hexaol]
- in vivo activity in Bcl-2 transgenic mice (Bcl-2 transgenic mice): lower in vivo activity

SMILES: Cc1cc2cc(O)c(O)cc2c(O)c1-c1c(C)cc2cc(O)c(O)cc2c1O [Compound 13, 3,3′-Dimethyl-2,2′-binaphthyl-1,1′,6,6′,7,7′-hexaol]
- induction of apoptosis of the RS11846 cell line (RS11846 cells): little or no apoptosis

SMILES: Cc1cc2c(C(=O)O)c(O)c(O)cc2c(O)c1-c1c(C)cc2c(C(=O)O)c(O)c(O)cc2c1O [Compound 14, 1,1′,6,6′,7,7′-Hexahydroxy-3,3′-dimethyl-2,2′-binaphthyl-5,5′-dicarboxylic acid]
- induction of apoptosis of the RS11846 cell line (RS11846 cells): little or no apoptosis

SMILES: CN(C)CC[C@H](CSc1ccccc1)Nc1ccc(S(=O)(=O)NC(=O)c2ccc(N3CCN(Cc4ccccc4-c4ccc(Cl)cc4)CC3)cc2)cc1[N+](=O)[O-] [Compound 15]
- cytotoxic activity against BP3 cell lines (BP3 cells): no cytotoxic activity
